As usually defined, the IC50 is the concentration that inhibits the measured activity by half.

CCR2, sequence (P41597 whole entry, species assumed): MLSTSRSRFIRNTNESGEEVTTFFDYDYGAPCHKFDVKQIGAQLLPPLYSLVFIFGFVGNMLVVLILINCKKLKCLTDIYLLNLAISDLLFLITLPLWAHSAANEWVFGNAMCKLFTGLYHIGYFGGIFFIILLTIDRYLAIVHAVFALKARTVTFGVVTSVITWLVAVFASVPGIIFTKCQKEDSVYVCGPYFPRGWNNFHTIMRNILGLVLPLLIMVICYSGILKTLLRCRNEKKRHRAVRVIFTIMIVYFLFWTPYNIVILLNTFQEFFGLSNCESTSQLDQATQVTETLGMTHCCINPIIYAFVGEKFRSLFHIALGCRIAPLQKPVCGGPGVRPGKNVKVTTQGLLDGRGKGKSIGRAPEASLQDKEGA

This test has as its target CCR2 (Homo sapiens (Human), UniProt P41597). In words: Calcium activity assayed on the FLIPR Tetra in HEK-Gqi5 cells stably expressing CCR2. The settings on record: FLIPR Tetra calcium assay. It counts as cell-based.
For the molecule `O=S(=O)(Cc1ncccn1)c1ccc(Cl)cc1NS(=O)(=O)c1cc2ccccc2o1` [N-{5-chloro-2-[(pyrimidin-2-ylmethyl)sulfonyl]phenyl}-1-benzofuran-2-sulfonamide], the “CCR2 % ANTAGONISM” value was found to be 104% and the IC50 was determined as 151 nM.

For `CC(C)(C)OC(=O)Nc1nc(CSc2ccc(Cl)cc2NS(=O)(=O)c2cc3ccccc3o2)cs1` [tert-butyl {4-[({2-[(1-benzofuran-2-ylsulfonyl)amino]-4-chlorophenyl}thio)methyl]-1,3-thiazol-2-yl}carbamate], the “CCR2 % ANTAGONISM” value is on record as 28% and the IC50 turned out to be 2420 nM.

Take `Cc1n[nH]c(C)c1CC[S+]([O-])c1ccc(Cl)cc1NS(=O)(=O)c1cc2ccccc2o1` (stereo not drawn) [N-(5-chloro-2-{[2-(3,5-dimethyl-1H-pyrazol-4-yl)ethyl]sulfinyl}phenyl)-1-benzofuran-2-sulfonamide]: the “CCR2 % ANTAGONISM” value stood at 83% and the IC50 amounted to 3050 nM.

Regarding `O=S(=O)(Cc1cccnc1F)c1ccc(Cl)cc1NS(=O)(=O)c1cc2ccccc2o1` [N-(5-chloro-2-{[(2-fluoropyridin-3-yl)methyl]sulfonyl}phenyl)-1-benzofuran-2-sulfonamide], the “CCR2 % ANTAGONISM” value is reported as 88% and the IC50 was determined as 79 nM.

For `NC(=O)NCCSc1ccc(Cl)cc1NS(=O)(=O)c1cc2ccccc2o1` [N-[2-({2-[(aminocarbonyl)amino]ethyl}thio)-5-chlorophenyl]-1-benzofuran-2-sulfonamide], the “CCR2 % ANTAGONISM” value was 103% and the 50% inhibitory concentration (IC50) came out at 80 nM.

Consider `O=[N+]([O-])c1cccc([S+]([O-])c2ccc(Cl)cc2NS(=O)(=O)c2ccc(Cl)c(C(F)(F)F)c2)c1` (stereo not drawn), for which the “CCR2 % ANTAGONISM” value worked out at 85% and the IC50 came out at 509 nM.

With `CC(C)c1ccc(S(=O)(=O)Nc2cc(Cl)ccc2S(C)(=O)=O)cc1` [N-[5-chloro-2-(methylsulfonyl)phenyl]-4-isopropylbenzenesulfonamide], the “CCR2 % ANTAGONISM” value is listed as 0%.

On to `Nc1cc(CSc2ccc(Cl)cc2NS(=O)(=O)c2cc3ccccc3o2)ccn1` [N-(2-{[(2-aminopyridin-4-yl)methyl]thio}-5-chlorophenyl)-1-benzofuran-2-sulfonamide], for which the “CCR2 % ANTAGONISM” value amounted to 100% and the IC50 stood at 80 nM.

For `O=c1cc(CS(=O)(=O)c2ccc(Cl)cc2NS(=O)(=O)c2cc3ccccc3o2)[nH]c(=O)[nH]1` [N-(5-chloro-2-{[(2,6-dioxo-1,2,3,6-tetrahydropyrimidin-4-yl)methyl]sulfonyl}phenyl)-1-benzofuran-2-sulfonamide], the “CCR2 % ANTAGONISM” value amounted to 70%.

`CC(C)c1ccc(S(=O)(=O)Nc2cc(Cl)ccc2[S+](C)[O-])cc1` (stereo not drawn) [N-[5-chloro-2-(methylsulfinyl)phenyl]-4-isopropylbenzenesulfonamide]: the “CCR2 % ANTAGONISM” value is 68% and the IC50 was found to be 934 nM.

In the case of `O=S(=O)(Nc1cc(Cl)ccc1[S+]([O-])Cc1cc[nH]n1)c1cc2ccccc2o1` (stereo not drawn) [N-{5-chloro-2-[(1H-pyrazol-3-ylmethyl)sulfinyl]phenyl}-1-benzofuran-2-sulfonamide], the “CCR2 % ANTAGONISM” value is 99% and the half-inhibitory concentration (IC50) turned out to be 634 nM.

With `Cc1ccc(S(=O)(=O)Nc2cc(Cl)ccc2[S+](C)[O-])cc1[N+](=O)[O-]` (stereo not drawn) [N-[5-chloro-2-(methylsulfinyl)phenyl]-4-methyl-3-nitrobenzenesulfonamide], the “CCR2 % ANTAGONISM” value is on record as 101% and the half-inhibitory concentration (IC50) worked out at 181 nM.

With `O=S(=O)(Cc1cccc(O)c1)c1ccc(Cl)cc1NS(=O)(=O)c1cc2ccccc2o1` [N-{5-chloro-2-[(3-hydroxybenzyl)sulfonyl]phenyl}-1-benzofuran-2-sulfonamide], the “CCR2 % ANTAGONISM” value is reported as 96% and the IC50 is 56 nM.

Turning to `Nc1cccc(CSc2ccc(Cl)cc2NS(=O)(=O)c2cccc(Cl)c2)c1` [N-{2-[(3-aminobenzyl)thio]-5-chlorophenyl}-3-chlorobenzenesulfonamide], the “CCR2 % ANTAGONISM” value was 95% and the 50% inhibitory concentration (IC50) was 1460 nM.

In the case of `O=S(=O)(Nc1cc(Cl)ccc1SCc1cc[nH]n1)c1cc2ccccc2o1` [N-{5-chloro-2-[(1H-pyrazol-3-ylmethyl)thio]phenyl}-1-benzofuran-2-sulfonamide], the “CCR2 % ANTAGONISM” value is recorded as 99% and the IC50 worked out at 16 nM.

As to `CN(C)C(=O)CC[S+]([O-])c1ccc(Cl)cc1NS(=O)(=O)c1ccc(F)cc1F` (stereo not drawn) [3-[(4-chloro-2-{[(2,4-difluorophenyl)sulfonyl]amino}phenyl)sulfinyl]-N,N-dimethylpropanamide], the “CCR2 % ANTAGONISM” value was 93% and the IC50 was determined as 1480 nM.

Consider `O=[N+]([O-])c1cccc(CS(=O)(=O)c2ccc(F)cc2NS(=O)(=O)c2cc3ccccc3o2)c1` [N-{5-fluoro-2-[(3-nitrobenzyl)sulfonyl]phenyl}-1-benzofuran-2-sulfonamide], for which the “CCR2 % ANTAGONISM” value worked out at 81% and the half-maximal inhibitory concentration (IC50) stood at 693 nM.

Take `Nc1nnc(CSc2ccc(Cl)cc2NS(=O)(=O)c2cc3ccccc3o2)[nH]1` [N-(2-{[(5-amino-4H-1,2,4-triazol-3-yl)methyl]thio}-5-chlorophenyl)-1-benzofuran-2-sulfonamide]: the “CCR2 % ANTAGONISM” value was 103% and the IC50 stood at 32 nM.

As to `O=S(=O)(Cc1cccnc1)c1ccc(Cl)cc1NS(=O)(=O)c1cc2ccccc2o1` [N-{5-chloro-2-[(pyridin-3-ylmethyl)sulfonyl]phenyl}-1-benzofuran-2-sulfonamide], the “CCR2 % ANTAGONISM” value worked out at 93% and the 50% inhibitory concentration (IC50) turned out to be 32 nM.

`O=S(=O)(Nc1cc(Cl)ccc1SCc1ncc[nH]1)c1ccc(Cl)c(C(F)(F)F)c1` [4-chloro-N-{5-chloro-2-[(1H-imidazol-2-ylmethyl)thio]phenyl}-3-(trifluoromethyl)benzenesulfonamide]: the “CCR2 % ANTAGONISM” value was determined as 84% and the IC50 worked out at 190 nM.

Turning to `CC(C)(C)OC(=O)Nc1cccc(C[S+]([O-])c2ccc(Cl)cc2NS(=O)(=O)c2cc3ccccc3o2)n1` (stereo not drawn) [tert-butyl {6-[({2-[(1-benzofuran-2-ylsulfonyl)amino]-4-chlorophenyl}sulfinyl)methyl]pyridin-2-yl}carbamate], the “CCR2 % ANTAGONISM” value stood at 82% and the IC50 amounted to 527 nM.

Consider `CS(=O)(=O)c1ccc(Cl)cc1NS(=O)(=O)c1cc2cc(Cl)ccc2o1` [5-chloro-N-[5-chloro-2-(methylsulfonyl)phenyl]-1-benzofuran-2-sulfonamide], for which the “CCR2 % ANTAGONISM” value was 74% and the IC50 is 2050 nM.

For the molecule `CSc1ccc(Cl)cc1NS(=O)(=O)c1ccc(Cl)c(C(F)(F)F)c1` [4-chloro-N-[5-chloro-2-(methylthio)phenyl]-3-(trifluoromethyl)benzenesulfonamide], the “CCR2 % ANTAGONISM” value was 82% and the IC50 worked out at 134 nM.

On to `CS(=O)(=O)c1ccc(Cl)cc1NS(=O)(=O)c1ccco1` [N-[5-chloro-2-(methylsulfonyl)phenyl]furan-2-sulfonamide], for which the “CCR2 % ANTAGONISM” value was 99% and the 50% inhibitory concentration (IC50) worked out at 345 nM.

With `CN(C)C(=O)CCSc1ccc(Cl)cc1NS(=O)(=O)c1ccc(Cl)cc1F` [3-[(4-chloro-2-{[(4-chloro-2-fluorophenyl)sulfonyl]amino}phenyl)thio]-N,N-dimethylpropanamide], the “CCR2 % ANTAGONISM” value was 78% and the half-inhibitory concentration (IC50) worked out at 771 nM.

Turning to `Nc1cc(C[S+]([O-])c2ccc(Cl)cc2NS(=O)(=O)c2cc3ccccc3o2)ccn1` (stereo not drawn) [N-(2-{[(2-aminopyridin-4-yl)methyl]sulfinyl}-5-chlorophenyl)-1-benzofuran-2-sulfonamide], the “CCR2 % ANTAGONISM” value is 101% and the IC50 is 865 nM.

As to `Nc1cc(CS(=O)(=O)c2ccc(Cl)cc2NS(=O)(=O)c2cc3ccccc3o2)cc[n+]1[O-]` [N-(2-{[(2-amino-1-oxidopyridin-4-yl)methyl]sulfonyl}-5-chlorophenyl)-1-benzofuran-2-sulfonamide], the “CCR2 % ANTAGONISM” value stood at 54% and the IC50 turned out to be 9960 nM.

Consider `O=S(=O)(Nc1cc(Cl)ccc1[S+]([O-])CCO)c1ccc(Cl)c(C(F)(F)F)c1` (stereo not drawn) [4-chloro-N-{5-chloro-2-[(2-hydroxyethyl)sulfinyl]phenyl}-3-(trifluoromethyl)benzenesulfonamide], for which the “CCR2 % ANTAGONISM” value amounted to 101% and the IC50 was 146 nM.

With `O=S(=O)(Nc1cc(Cl)ccc1SCc1ccccn1)c1ccc(Cl)c(C(F)(F)F)c1` [4-chloro-N-{5-chloro-2-[(pyridin-2-ylmethyl)thio]phenyl}-3-(trifluoromethyl)benzenesulfonamide], the “CCR2 % ANTAGONISM” value is recorded as 79% and the 50% inhibitory concentration (IC50) amounted to 199 nM.

As to `CC(=O)Nc1nc(C[S+]([O-])c2ccc(Cl)cc2NS(=O)(=O)c2cc3ccccc3o2)cs1` (stereo not drawn) [Compound 236, N-{-4-[({2-[(1-benzofuran-2-ylsulfonyl)amino]-4-chlorophenyl}sulfinyl)methyl]-1,3-thiazol-2-yl}acetamide], the “CCR2 % ANTAGONISM” value is 79% and the IC50 came out at 2680 nM.

`O=S(=O)(Cc1ccccn1)c1ccc(Cl)cc1NS(=O)(=O)c1cc2ccccc2o1` [N-{5-chloro-2-[(pyridin-2-ylmethyl)sulfonyl]phenyl}-1-benzofuran-2-sulfonamide]: the “CCR2 % ANTAGONISM” value came out at 100% and the IC50 is 29 nM.

As for `O=[N+]([O-])c1cccc(C[S+]([O-])c2ccccc2NS(=O)(=O)c2cc3ccccc3o2)c1` (stereo not drawn) [N-{2-[(3-nitrobenzyl)sulfinyl]phenyl}-1-benzofuran-2-sulfonamide], the “CCR2 % ANTAGONISM” value is 97% and the half-maximal inhibitory concentration (IC50) was 653 nM.

For the molecule `O=c1[nH]cc(C[S+]([O-])c2ccc(Cl)cc2NS(=O)(=O)c2cc3ccccc3o2)c(=O)[nH]1` (stereo not drawn) [N-(5-chloro-2-{[(2,4-dioxo-1,2,3,4-tetrahydropyrimidin-5-yl)methyl]sulfinyl}phenyl)-1-benzofuran-2-sulfonamide], the “CCR2 % ANTAGONISM” value is listed as 21% and the concentration for half-maximal inhibition (IC50) was determined as 3080 nM.

With `CCCn1cnc(CS(=O)(=O)c2ccc(Cl)cc2NS(=O)(=O)c2cc3ccccc3o2)c1` [N-(5-chloro-2-{[(1-propyl-1H-imidazol-4-yl)methyl]sulfonyl}phenyl)-1-benzofuran-2-sulfonamide], the “CCR2 % ANTAGONISM” value amounted to 98% and the IC50 is 804 nM.

(Values after patent US9663460B2, “Sulfur derivatives as chemokine receptor modulators” (ALLERGAN, INC., priority 2010, dated 2017).)
